From PubChem BioAssay (NCI)
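How tested: cells in 96-well plates exposed to compound for 48 hours at five concentrations. Abbreviation: GI50, concentration required for 50% inhibition of growth. TGI denotes the concentration required for complete inhibition of growth.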

How the values were obtained:
Assay in all cases: NCI anticancer screen, dose series, 48 h
[1] = system: 786-0 renal
[2] = system: BT-549 breast
[3] = system: DU-145 prostate
[4] = system: HCC-2998 colon
[5] = system: HCT-15 colon
[6] = system: HL-60(TB) leukemia
[7] = system: HOP-62 NSCLC
[8] = system: HOP-92 NSCLC
[9] = system: HS 578T breast
[10] = system: IGROV1 ovarian
[11] = system: MALME-3M melanoma
[12] = system: MDA-MB-231 breast
[13] = system: MOLT-4 leukemia
[14] = system: NCI-H23 lung
[15] = system: NCI-H460 lung
[16] = system: NCI-H522 lung
[17] = system: OVCAR-3 ovarian
[18] = system: OVCAR-4 ovarian
[19] = system: RXF 393 renal
[20] = system: SF-268 CNS
[21] = system: SF-539 CNS
[22] = system: SK-MEL-28 melanoma
[23] = system: SK-OV-3 ovarian
[24] = system: SN12C renal
[25] = system: SNB-75 CNS
[26] = system: TK-10 renal
[27] = system: UACC-257 melanoma
[28] = system: A498 renal
[29] = system: A549 NSCLC
[30] = system: ACHN renal
[31] = system: CAKI-1 renal
[32] = system: CCRF-CEM leukemia
[33] = system: COLO 205 colon
[34] = system: HCT-116 colon
[35] = system: HT29 colon
[36] = system: K-562 leukemia
[37] = system: KM12 colon
[38] = system: LOX IMVI melanoma
[39] = system: M14 melanoma
[40] = system: MCF7 breast
[41] = system: NCI-H226 lung
[42] = system: NCI/ADR-RES ovarian
[43] = system: OVCAR-5 ovarian
[44] = system: OVCAR-8 ovarian
[45] = system: PC-3 prostate
[46] = system: RPMI-8226 leukemia
[47] = system: SF-295 CNS
[48] = system: SK-MEL-2 melanoma
[49] = system: SK-MEL-5 melanoma
[50] = system: SNB-19 CNS
[51] = system: SR leukemia
[52] = system: SW-620 colon
[53] = system: U251 CNS
[54] = system: UACC-62 melanoma
[55] = system: UO-31 renal

CCSc1nnc(-c2ccc3ccccc3c2O)n1-c1ccccc1 gave a GI50 [1] of over 100 µM, a TGI [1] of over 100 µM and a GI50 [2] of over 100 µM. For the same compound, the TGI [2] was over 100 µM, the GI50 [3] was over 100 µM and the TGI [3] was over 100 µM. It also gave a GI50 [4] of over 100 µM, a TGI [4] of over 100 µM and a GI50 [5] of 2.72 µM. For the same compound, the TGI [5] was over 100 µM, the GI50 [6] was over 100 µM and the TGI [6] was over 100 µM. The GI50 [7] was 21.5 µM, the TGI [7] was over 100 µM and the GI50 [8] was 5 µM. It also gave a TGI [8] of 92.1 µM, a GI50 [9] of over 100 µM and a TGI [9] of over 100 µM. It also gave a GI50 [10] of 7.59 µM, a TGI [10] of over 100 µM and a GI50 [11] of 69.7 µM. The TGI [11] was over 100 µM, the GI50 [12] was over 100 µM and the TGI [12] was over 100 µM. It also gave a GI50 [13] of over 100 µM, a TGI [13] of over 100 µM and a GI50 [14] of over 100 µM. It also gave a TGI [14] of over 100 µM, a GI50 [15] of 3.25 µM and a TGI [15] of over 100 µM. The GI50 [16] was 4.27 µM, the TGI [16] was over 100 µM and the GI50 [17] was over 100 µM. It also gave a TGI [17] of over 100 µM, a GI50 [18] of 7.22 µM and a TGI [18] of over 100 µM. The GI50 [19] was over 100 µM, the TGI [19] was over 100 µM and the GI50 [20] was 8.02 µM. It also gave a TGI [20] of over 100 µM, a GI50 [21] of over 100 µM and a TGI [21] of over 100 µM. For the same compound, the GI50 [22] was over 100 µM, the TGI [22] was over 100 µM and the GI50 [23] was over 100 µM. The TGI [23] was over 100 µM, the GI50 [24] was over 100 µM and the TGI [24] was over 100 µM. For the same compound, the GI50 [25] was 71 µM, the TGI [25] was over 100 µM and the TGI [26] was over 100 µM. The GI50 [27] was over 100 µM and the TGI [27] was over 100 µM.
COc1ccc(/C=C\c2cc(OC)c(OC)c(OC)c2)cc1N/C=C\C(=O)c1c[nH]c2ccccc12 showed a GI50 [1] of under 0.01 µM, a TGI [1] of over 100 µM and a GI50 [28] of under 0.01 µM. For the same compound, the TGI [28] was 0.0153 µM, the GI50 [29] was under 0.01 µM and the TGI [29] was over 100 µM. It also gave a GI50 [30] of under 0.01 µM, a TGI [30] of over 100 µM and a GI50 [31] of under 0.01 µM. The TGI [31] was over 100 µM, the GI50 [32] was under 0.01 µM and the TGI [32] was over 100 µM. It also gave a GI50 [33] of under 0.01 µM, a TGI [33] of under 0.01 µM and a GI50 [3] of under 0.01 µM. It also gave a TGI [3] of 0.0142 µM, a GI50 [4] of under 0.01 µM and a TGI [4] of over 100 µM. The GI50 [34] was under 0.01 µM, the TGI [34] was 10.4 µM and the GI50 [5] was under 0.01 µM. The TGI [5] was over 100 µM, the GI50 [7] was under 0.01 µM and the TGI [7] was over 100 µM. The GI50 [8] was 0.0137 µM, the TGI [8] was 3.64 µM and the GI50 [9] was under 0.01 µM. It also gave a TGI [9] of over 100 µM, a GI50 [35] of under 0.01 µM and a TGI [35] of over 100 µM. The GI50 [10] was under 0.01 µM, the TGI [10] was over 100 µM and the GI50 [36] was under 0.01 µM. It also gave a TGI [36] of over 100 µM, a GI50 [37] of under 0.01 µM and a TGI [37] of 0.0254 µM. The GI50 [38] was under 0.01 µM, the TGI [38] was over 100 µM and the GI50 [39] was under 0.01 µM. The TGI [39] was 47.8 µM, the GI50 [11] was 5 µM and the TGI [11] was 57.2 µM. It also gave a GI50 [40] of under 0.01 µM, a TGI [40] of over 100 µM and a GI50 [12] of under 0.01 µM. The TGI [12] was 94.4 µM, the GI50 [13] was under 0.01 µM and the TGI [13] was over 100 µM. It also gave a GI50 [41] of 0.016 µM, a TGI [41] of over 100 µM and a GI50 [14] of under 0.01 µM. It also gave a TGI [14] of over 100 µM, a GI50 [15] of under 0.01 µM and a TGI [15] of 20.3 µM. The GI50 [42] was under 0.01 µM, the TGI [42] was 43.3 µM and the GI50 [17] was under 0.01 µM. For the same compound, the TGI [17] was under 0.01 µM, the GI50 [18] was under 0.01 µM and the TGI [18] was over 100 µM. It also gave a GI50 [43] of under 0.01 µM, a TGI [43] of over 100 µM and a GI50 [44] of under 0.01 µM. For the same compound, the TGI [44] was over 100 µM, the GI50 [45] was under 0.01 µM and the TGI [45] was over 100 µM. The GI50 [46] was under 0.01 µM, the TGI [46] was 19.6 µM and the GI50 [20] was under 0.01 µM. The TGI [20] was over 100 µM, the GI50 [47] was under 0.01 µM and the TGI [47] was over 100 µM. It also gave a GI50 [21] of under 0.01 µM, a TGI [21] of under 0.01 µM and a GI50 [48] of under 0.01 µM. For the same compound, the TGI [48] was 20.3 µM, the GI50 [22] was 1.59 µM and the TGI [22] was over 100 µM. For the same compound, the GI50 [49] was under 0.01 µM, the TGI [49] was 0.0201 µM and the GI50 [23] was under 0.01 µM. The TGI [23] was over 100 µM, the GI50 [24] was 0.0224 µM and the TGI [24] was over 100 µM. It also gave a GI50 [50] of under 0.01 µM, a TGI [50] of over 100 µM and a GI50 [25] of under 0.01 µM. The TGI [25] was over 100 µM, the GI50 [51] was under 0.01 µM and the TGI [51] was over 100 µM. For the same compound, the GI50 [52] was under 0.01 µM, the TGI [52] was over 100 µM and the GI50 [26] was 40.2 µM. It also gave a TGI [26] of over 100 µM, a GI50 [53] of under 0.01 µM and a TGI [53] of 47.8 µM. It also gave a GI50 [27] of over 100 µM, a TGI [27] of over 100 µM and a GI50 [54] of 4.38 µM. It also gave a TGI [54] of 64.2 µM, a GI50 [55] of under 0.01 µM and a TGI [55] of over 100 µM.
